Measured values taken from patent US11938129B2, “Methods and compositions for the treatment of vascular disease” (THE GENERAL HOSPITAL CORPORATION, priority 2018, dated 2024).

Tests used:
[1] = tested on: SM22a expression in TAA VSMCs; assay: in vitro GSK343 treatment of isolated TAA VSMCs, SM22a immunoblotting after TGF-β1; assay type: cell-based, human; conditions: GSK343, TGF-β1 10 ng/mL
Protocol: Primary human aortic smooth muscle cells (HAoSMC) from healthy donors were purchased from Cell Applications Inc., California, USA (Cat. #354K-05a). Primary aneurysm aortic SMCs were isolated from fresh TAA tissue at the moment of surgery by standard explant of the aortic media. Mouse aortic SMCs were isolated by standard explant of the ascending section of the aortas from wild-type or Fbn1ci°39G1+ mice. Smooth muscle cell identity was assessed by immunofluorescence staining of contractile markers including SM22a, Calponin, Smoothelin and Vinculin. In order to preserve cell identity all experiments were carried out at passages 1-5 (Timraz et al., 2016). Human and murine SMCs were grown with smooth muscle cell growth medium from Cell Applications Inc. (Cat. #311-500). VSMCs at 60-70% confluence were supplemented with opti-MEM 24 hrs before treatment with complete growing media containing GSK343 at a concentration of […] for 4 days. Fresh media containing GSK343 was supplied daily. For GSK343/TGF81 (10 ng/mL) combo treatment, cells were first treated with complete media containing GSK343 at concentration of 10 nM during the 2 first days followed by GSK343/TGFβ combination treatment the next 2 days. Prior to cellular collection cells were washed with sterile PBS and RNA or protein extraction were performed as described above.

FAK = assay: immunofluorescence of p-FAK in ligated carotid; assay type: in vivo, mouse; conditions: media and intima of carotid arteries
Protocol: (§1) All mice used in this study were cared for under strict compliance with the Partners Institutional Animal Care and Use Committee (IACUC), regulated by the United States Public Health Service (USPHS). Carotid ligations were performed in 10 week old mice. Briefly, animals were anesthetized using intraperitoneal ketamine/xylazine (80 and 12 mg/kg, respectively) followed by a small incision in the neck to expose the carotid artery. Then the left carotid was ligated at the carotid bifurcation level using a 8-0 silk suture. At 21 days mice were sacrificed and carotids were collected for histological analysis. Approximately 98% of wild type mice developed stenotic lesions. Mice that developed thrombosis of the ligated carotid were excluded from the study (−1¬2%). Malatl knockout mice were kindly provided by Dr. David Spector (Cold Spring Harbor, N.Y.). Hdac9 flox/flox/Talgn-cre mice were generated as previously reported (10). […]
(§2) Left and right carotids were cryosectioned using OCT standard protocol and sectioning. […] Slides 1, 5, 10, and 15 were H&E stained for quantification of neointima. For quantification of the neointima, internal and external elastic lamina perimeters and medial thickness from 4 quadrants were measured and averaged using Image J software from the National Institutes of Health (NIH). […]

Hdac9 = assay: immunofluorescence of Hdac9 in ligated carotid; assay type: in vivo, mouse; conditions: arterial media and intima of carotid arteries
Protocol: as §1, §2

[2] = tested on: aortic aneurysm in Fbn1C1039G/+ mice; assay: experimental aortic aneurysm in Fbn1C1039G/+ mice: echocardiographic aortic dimensions; assay type: in vivo, mouse; conditions: Fbn1C1039G/+ mice treated from two to six months of life, drinking water
Source text: Dimensions from each animal represent averages of measurements made on still frames in systole of the maximal internal diameter of the aortic valve annulus, aortic sinuses, sinotubular junction, or ascending aorta by a cardiologist blinded to genotype. The aorta was imaged using a standard parasternal long axis view. Based on historic controls, the mean diameter of the wild type aortic root at 4 months of life is 1.73+/-0.2 mm while in our disease model (Fbn1ci°[…]/+) the mean diameter is 2.15+/-0.3 mm. […] Nair hair removal cream was used on all mice the day prior to echocardiograms. All echocardiograms were performed on awake, unsedated mice using the Visualsonics Vevo imaging system and a 30 MHz transducer. All CT images were acquired using an Inveon small animal micro CT (Siemens Medical Solutions Inc., Malven, Pa.). All mice received intravenous iodinated contrast (Isovue-370, Bracco Diagnostic Inc.) at 20 pL/min during the scan. […] Images were visualized and analyzed in OsiriX software. Cohorts of 8-week-old wild-type or Fbn1cw3gGi+ mice were treated with oral administration in drinking water of either Losartan or GSK343 for 20 weeks (FIG. 5). […] Then 200 mL of drinking water was supplemented with 250 pL of GSK343 stock solution. […] Aortic dimensions were monitored monthly by echocardiograms as mentioned above.

CCCc1cc(C)[nH]c(=O)c1CNC(=O)c1cc(-c2ccnc(N3CCN(C)CC3)c2)cc2c1cnn2C(C)C [GSK343]
SM22a expression after stimulation with recombinant TGF-β1 [1]: recovered the ability to induce SM22a expression | phosphorylation of FAK (FAK): dramatic reduction | accumulation of Hdac9 (Hdac9): decreased accumulation | aortic dimensions [2]: ability to improve aortic dimensions
